According to the NIST ThermoML archive (doi:10.1016/j.fluid.2019.05.003):
± gives the expanded uncertainty stated by the source.

Test: xn = mol fraction of the nth substance listed
Settings: 101 kPa, Liquid; for viscosity: Falling or rolling sphere viscometry; for mass density: Vibrating tube method

**Q.** Which results are given for CC[n+]1ccccc1.[Br-] [1-ethylpyridinium bromide] + O?
**A.** viscosity (298.15 K, x1 = 0.027): 1.203 ± 0.073 mPa·s; viscosity (298.15 K, x1 = 0.049): 1.483 ± 0.09 mPa·s; viscosity (298.15 K, x1 = 0.063): 1.75 ± 0.11 mPa·s; viscosity (298.15 K, x1 = 0.086): 2.18 ± 0.13 mPa·s; viscosity (298.15 K, x1 = 0.101): 2.507 ± 0.15 mPa·s; viscosity (298.15 K, x1 = 0.147): 3.769 ± 0.23 mPa·s; viscosity (298.15 K, x1 = 0.184): 5.028 ± 0.3 mPa·s; viscosity (298.15 K, x1 = 0.213): 6.298 ± 0.38 mPa·s; viscosity (298.15 K, x1 = 0.25): 8.734 ± 0.53 mPa·s; viscosity (298.15 K, x1 = 0.299): 10.5 ± 0.64 mPa·s; viscosity (298.15 K, x1 = 0.341): 13.33 ± 0.81 mPa·s; viscosity (298.15 K, x1 = 0.401): 19.65 ± 1.2 mPa·s; viscosity (298.15 K, x1 = 0.451): 25.82 ± 1.6 mPa·s; mass density (298.15 K, x1 = 0.027): 1069.4 ± 0.5 kg/m3; mass density (298.15 K, x1 = 0.049): 1113.8 ± 0.5 kg/m3; mass density (298.15 K, x1 = 0.063): 1139.5 ± 0.4 kg/m3; mass density (298.15 K, x1 = 0.086): 1174.3 ± 0.4 kg/m3; mass density (298.15 K, x1 = 0.101): 1194.1 ± 0.3 kg/m3; mass density (298.15 K, x1 = 0.147): 1243.9 ± 0.4 kg/m3; mass density (298.15 K, x1 = 0.184): 1274.6 ± 0.4 kg/m3; mass density (298.15 K, x1 = 0.213): 1294.5 ± 0.4 kg/m3; mass density (298.15 K, x1 = 0.25): 1315.3 ± 0.5 kg/m3; mass density (298.15 K, x1 = 0.299): 1337 ± 0.6 kg/m3; mass density (298.15 K, x1 = 0.341): 1352.3 ± 0.7 kg/m3; mass density (298.15 K, x1 = 0.401): 1370.9 ± 0.8 kg/m3; mass density (298.15 K, x1 = 0.451): 1381.1 ± 1 kg/m3; viscosity (303.15 K, x1 = 0.027): 1.071 ± 0.065 mPa·s; viscosity (303.15 K, x1 = 0.049): 1.339 ± 0.081 mPa·s; viscosity (303.15 K, x1 = 0.063): 1.554 ± 0.094 mPa·s; viscosity (303.15 K, x1 = 0.086): 1.913 ± 0.12 mPa·s; viscosity (303.15 K, x1 = 0.101): 2.215 ± 0.13 mPa·s; viscosity (303.15 K, x1 = 0.147): 3.293 ± 0.2 mPa·s; viscosity (303.15 K, x1 = 0.184): 4.402 ± 0.27 mPa·s; viscosity (303.15 K, x1 = 0.213): 5.427 ± 0.33 mPa·s; viscosity (303.15 K, x1 = 0.25): 7.646 ± 0.46 mPa·s; viscosity (303.15 K, x1 = 0.299): 8.868 ± 0.54 mPa·s; viscosity (303.15 K, x1 = 0.341): 11.27 ± 0.68 mPa·s; viscosity (303.15 K, x1 = 0.401): 16.67 ± 1 mPa·s; viscosity (303.15 K, x1 = 0.451): 21.6 ± 1.3 mPa·s; mass density (303.15 K, x1 = 0.027): 1067.4 ± 0.5 kg/m3; mass density (303.15 K, x1 = 0.049): 1111.4 ± 0.5 kg/m3; mass density (303.15 K, x1 = 0.063): 1137 ± 0.4 kg/m3; mass density (303.15 K, x1 = 0.086): 1171.6 ± 0.4 kg/m3; mass density (303.15 K, x1 = 0.101): 1191.2 ± 0.3 kg/m3; mass density (303.15 K, x1 = 0.147): 1240.8 ± 0.4 kg/m3; mass density (303.15 K, x1 = 0.184): 1271.3 ± 0.4 kg/m3; mass density (303.15 K, x1 = 0.213): 1291.1 ± 0.4 kg/m3; mass density (303.15 K, x1 = 0.25): 1311.9 ± 0.5 kg/m3; mass density (303.15 K, x1 = 0.299): 1333.6 ± 0.5 kg/m3; mass density (303.15 K, x1 = 0.341): 1348.8 ± 0.7 kg/m3; mass density (303.15 K, x1 = 0.401): 1367.4 ± 0.8 kg/m3; mass density (303.15 K, x1 = 0.451): 1378 ± 1 kg/m3; viscosity (308.15 K, x1 = 0.027): 0.969 ± 0.059 mPa·s; viscosity (308.15 K, x1 = 0.049): 1.207 ± 0.073 mPa·s; viscosity (308.15 K, x1 = 0.063): 1.393 ± 0.084 mPa·s; viscosity (308.15 K, x1 = 0.086): 1.728 ± 0.11 mPa·s; viscosity (308.15 K, x1 = 0.101): 1.966 ± 0.12 mPa·s; viscosity (308.15 K, x1 = 0.147): 2.911 ± 0.18 mPa·s; viscosity (308.15 K, x1 = 0.184): 3.821 ± 0.23 mPa·s; viscosity (308.15 K, x1 = 0.213): 4.737 ± 0.29 mPa·s; viscosity (308.15 K, x1 = 0.25): 6.664 ± 0.4 mPa·s; viscosity (308.15 K, x1 = 0.299): 7.711 ± 0.47 mPa·s; viscosity (308.15 K, x1 = 0.341): 9.653 ± 0.59 mPa·s; viscosity (308.15 K, x1 = 0.401): 14.3 ± 0.87 mPa·s; viscosity (308.15 K, x1 = 0.451): 18.22 ± 1.1 mPa·s; mass density (308.15 K, x1 = 0.027): 1065.2 ± 0.5 kg/m3; mass density (308.15 K, x1 = 0.049): 1109 ± 0.4 kg/m3; mass density (308.15 K, x1 = 0.063): 1134.3 ± 0.4 kg/m3; mass density (308.15 K, x1 = 0.086): 1168.7 ± 0.4 kg/m3; mass density (308.15 K, x1 = 0.101): 1188.2 ± 0.3 kg/m3; mass density (308.15 K, x1 = 0.147): 1237.6 ± 0.4 kg/m3; mass density (308.15 K, x1 = 0.184): 1268 ± 0.4 kg/m3; mass density (308.15 K, x1 = 0.213): 1287.7 ± 0.4 kg/m3; mass density (308.15 K, x1 = 0.25): 1308.5 ± 0.5 kg/m3; mass density (308.15 K, x1 = 0.299): 1330.2 ± 0.5 kg/m3; mass density (308.15 K, x1 = 0.341): 1345.4 ± 0.7 kg/m3; mass density (308.15 K, x1 = 0.401): 1364 ± 0.8 kg/m3; mass density (308.15 K, x1 = 0.451): 1374.6 ± 1 kg/m3; viscosity (313.15 K, x1 = 0.027): 0.882 ± 0.053 mPa·s; viscosity (313.15 K, x1 = 0.049): 1.093 ± 0.066 mPa·s; viscosity (313.15 K, x1 = 0.063): 1.26 ± 0.076 mPa·s; viscosity (313.15 K, x1 = 0.086): 1.565 ± 0.095 mPa·s; viscosity (313.15 K, x1 = 0.101): 1.768 ± 0.11 mPa·s; viscosity (313.15 K, x1 = 0.147): 2.591 ± 0.16 mPa·s; viscosity (313.15 K, x1 = 0.184): 3.38 ± 0.2 mPa·s; viscosity (313.15 K, x1 = 0.213): 4.172 ± 0.25 mPa·s; viscosity (313.15 K, x1 = 0.25): 5.814 ± 0.35 mPa·s; viscosity (313.15 K, x1 = 0.299): 6.713 ± 0.41 mPa·s; viscosity (313.15 K, x1 = 0.341): 8.366 ± 0.51 mPa·s; viscosity (313.15 K, x1 = 0.401): 12.27 ± 0.75 mPa·s; viscosity (313.15 K, x1 = 0.451): 15.47 ± 0.94 mPa·s; mass density (313.15 K, x1 = 0.027): 1062.8 ± 0.5 kg/m3; mass density (313.15 K, x1 = 0.049): 1106.4 ± 0.4 kg/m3; mass density (313.15 K, x1 = 0.063): 1131.6 ± 0.4 kg/m3; mass density (313.15 K, x1 = 0.086): 1165.8 ± 0.4 kg/m3; mass density (313.15 K, x1 = 0.101): 1185.2 ± 0.3 kg/m3; mass density (313.15 K, x1 = 0.147): 1234.3 ± 0.4 kg/m3; mass density (313.15 K, x1 = 0.184): 1264.6 ± 0.4 kg/m3; mass density (313.15 K, x1 = 0.213): 1284.3 ± 0.4 kg/m3; mass density (313.15 K, x1 = 0.25): 1305 ± 0.4 kg/m3; mass density (313.15 K, x1 = 0.299): 1326.7 ± 0.5 kg/m3; mass density (313.15 K, x1 = 0.341): 1341.9 ± 0.6 kg/m3; mass density (313.15 K, x1 = 0.401): 1360.5 ± 0.8 kg/m3; mass density (313.15 K, x1 = 0.451): 1371.1 ± 1 kg/m3; viscosity (318.15 K, x1 = 0.027): 0.808 ± 0.049 mPa·s; viscosity (318.15 K, x1 = 0.049): 1.004 ± 0.061 mPa·s; viscosity (318.15 K, x1 = 0.063): 1.146 ± 0.069 mPa·s; viscosity (318.15 K, x1 = 0.086): 1.414 ± 0.086 mPa·s; viscosity (318.15 K, x1 = 0.101): 1.599 ± 0.097 mPa·s; viscosity (318.15 K, x1 = 0.147): 2.321 ± 0.14 mPa·s; viscosity (318.15 K, x1 = 0.184): 3.012 ± 0.18 mPa·s; viscosity (318.15 K, x1 = 0.213): 3.702 ± 0.22 mPa·s; viscosity (318.15 K, x1 = 0.25): 5.096 ± 0.31 mPa·s; viscosity (318.15 K, x1 = 0.299): 5.898 ± 0.36 mPa·s; viscosity (318.15 K, x1 = 0.341): 7.312 ± 0.44 mPa·s; viscosity (318.15 K, x1 = 0.401): 10.62 ± 0.65 mPa·s; viscosity (318.15 K, x1 = 0.451): 13.29 ± 0.81 mPa·s; mass density (318.15 K, x1 = 0.027): 1061 ± 0.5 kg/m3; mass density (318.15 K, x1 = 0.049): 1103.7 ± 0.4 kg/m3; mass density (318.15 K, x1 = 0.063): 1128.8 ± 0.4 kg/m3; mass density (318.15 K, x1 = 0.086): 1162.8 ± 0.4 kg/m3; mass density (318.15 K, x1 = 0.101): 1182.1 ± 0.3 kg/m3; mass density (318.15 K, x1 = 0.147): 1230.9 ± 0.4 kg/m3; mass density (318.15 K, x1 = 0.184): 1261.3 ± 0.4 kg/m3; mass density (318.15 K, x1 = 0.213): 1280.9 ± 0.4 kg/m3; mass density (318.15 K, x1 = 0.25): 1301.6 ± 0.4 kg/m3; mass density (318.15 K, x1 = 0.299): 1323.3 ± 0.5 kg/m3; mass density (318.15 K, x1 = 0.341): 1338.5 ± 0.6 kg/m3; mass density (318.15 K, x1 = 0.401): 1357.1 ± 0.8 kg/m3; mass density (318.15 K, x1 = 0.451): 1367.7 ± 1 kg/m3; viscosity (323.15 K, x1 = 0.027): 0.744 ± 0.045 mPa·s; viscosity (323.15 K, x1 = 0.049): 0.92 ± 0.056 mPa·s; viscosity (323.15 K, x1 = 0.063): 1.047 ± 0.063 mPa·s; viscosity (323.15 K, x1 = 0.086): 1.287 ± 0.078 mPa·s; viscosity (323.15 K, x1 = 0.101): 1.456 ± 0.088 mPa·s; viscosity (323.15 K, x1 = 0.147): 2.096 ± 0.13 mPa·s; viscosity (323.15 K, x1 = 0.184): 2.702 ± 0.16 mPa·s; viscosity (323.15 K, x1 = 0.213): 3.309 ± 0.2 mPa·s; viscosity (323.15 K, x1 = 0.25): 4.482 ± 0.27 mPa·s; viscosity (323.15 K, x1 = 0.299): 5.226 ± 0.32 mPa·s; viscosity (323.15 K, x1 = 0.341): 6.446 ± 0.39 mPa·s; viscosity (323.15 K, x1 = 0.401): 9.272 ± 0.56 mPa·s; viscosity (323.15 K, x1 = 0.451): 11.53 ± 0.7 mPa·s
